Measurements: ChEMBL document CHEMBL1145306, “Synthesis of 2-C-hydroxymethylribofuranosylpurines as potent anti-hepatitis C virus (HCV) agents” (2006)

Tests used:
[1] = test system: Hepatitis C virus; assay: Antiviral activity against HCV in Huh7 cell line at 1 uM assessed as reduction in luciferase activity; type: functional, Hepacivirus hominis; settings: Huh-7
[2] = test system: Hepatitis C virus; assay: Antiviral activity against HCV in Huh7 cell line at 10 uM assessed as reduction in luciferase activity; type: functional, Hepacivirus hominis; settings: Huh-7

Nc1ncnc2c1ncn2[C@@H]1O[C@H](CO)[C@@H](O)[C@]1(O)CO
inhibition at 1 µM [1]: 2% | inhibition at 10 µM [2]: 50%
